In US9896445B2, “Heterocyclic inhibitors of ERK1 and ERK2 and their use in the treatment of cancer” (Asana Biosciences, LLC, priority 2015, dated 2018) one finds IC50 and melting point data, which are given here for 25 compounds.

The target of one series is T1, ERK2 (Homo sapiens, UniProt P28482).
T1 construct: purchased Jubilant Biosys
As to the kind of experiment: ERK2 HTRF (biochemical) assay. Conditions: HTRF. The method in brief:
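Readout was time-resolved FRET between europium anti-phospho-MBP and streptavidin-APC after a 60-min room-temperature kinase step. That step used ERK2 (25 nM in enzyme mix), biotinylated MBP peptide (1 uM) and ATP (24 uM) from the substrate mix, in pH 7.5 Tris buffer.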
For orientation: Time-resolved FRET reads energy transfer from a long-lived donor to a nearby acceptor.

For another series, the target named is T2, ERK1 (Homo sapiens, UniProt P27361).
T2 construct: purchased Jubilant Biosys
T2 sequence (P27361 whole entry): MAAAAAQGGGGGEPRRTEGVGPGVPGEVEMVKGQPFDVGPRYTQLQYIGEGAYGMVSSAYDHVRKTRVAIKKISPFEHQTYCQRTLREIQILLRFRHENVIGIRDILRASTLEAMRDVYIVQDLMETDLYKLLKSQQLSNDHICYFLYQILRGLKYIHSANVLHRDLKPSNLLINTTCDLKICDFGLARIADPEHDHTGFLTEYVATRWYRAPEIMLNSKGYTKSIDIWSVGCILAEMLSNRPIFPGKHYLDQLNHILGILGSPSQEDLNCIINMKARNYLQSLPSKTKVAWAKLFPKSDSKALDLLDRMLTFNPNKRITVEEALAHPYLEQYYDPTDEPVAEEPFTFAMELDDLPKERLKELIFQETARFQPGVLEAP
Nature of the series: ERK1 HTRF (biochemical) assay. Conditions: HTRF. The protocol: ERK1 and ERK2 HTRF (Biochemical) Assays
These assays employed a homogeneous time resolved fluorescence (HTRF) technique. […] The plate was incubated at room temperature for 60 min with shaking. […] The IC50 values (half maximal inhibitory concentration values) were subsequently determined using a sigmoidal dose-response curve (variable slope) in GraphPad Prism® 5 software.

T1 sequence (P28482 whole entry): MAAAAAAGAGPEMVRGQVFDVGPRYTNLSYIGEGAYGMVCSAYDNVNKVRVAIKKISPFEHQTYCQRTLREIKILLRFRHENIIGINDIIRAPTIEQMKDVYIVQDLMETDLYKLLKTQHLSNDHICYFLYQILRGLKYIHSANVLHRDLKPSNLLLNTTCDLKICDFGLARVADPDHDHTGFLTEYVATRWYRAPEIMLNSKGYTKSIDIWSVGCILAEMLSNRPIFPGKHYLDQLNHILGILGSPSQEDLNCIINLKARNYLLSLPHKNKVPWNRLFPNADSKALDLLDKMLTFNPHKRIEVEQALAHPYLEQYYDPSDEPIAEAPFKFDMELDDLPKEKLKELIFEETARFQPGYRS

A word on the IC50: it is the concentration that inhibits the measured activity by half. Broadly, the melting point is the temperature of the solid-liquid transition. With `O=C(NC(CO)c1cccc(Cl)c1)c1cn(-c2ccnc(Nc3ccccc3)c2)cn1` (stereo not shown) [Compound 77, N-(1-(3-chlorophenyl)-2-hydroxyethyl)-1-(2-(phenylamino)pyridin-4-yl)-1H-imidazole-4-carboxamide], the melting point was determined as 130 °C. At ERK2, this compound returned an IC50 of at most 50 nM. For the same compound, the concentration for half-maximal inhibition (IC50) at ERK1 is below 50 nM.
For `Cc1cnc(Nc2ccc(F)cc2)cc1-n1cnc(C(=O)NC(CN)c2ccccc2)c1` (stereo not shown) [Compound 191, N-(2-amino-1-phenylethyl)-1-(2-((4-fluorophenyl)amino)-5-methylpyridin-4-yl)-1H-imidazole-4-carboxamide] the same measures were 154.7 °C, 50 to 100 nM and below 50 nM.
In the case of `Cc1cnc(NC2CCN(C)C2)nc1-n1ccc(C(=O)N[C@H](CO)c2cccc(Cl)c2)c1` (stereo partly drawn) [Compound 208, N-((S)-1-(3-chlorophenyl)-2-hydroxyethyl)-1-(5-methyl-2-((1-methylpyrrolidin-3-yl)amino)pyrimidin-4-yl)-1H-pyrrole-3-carboxamide], the IC50 against ERK2 was at most 50 nM; on ERK1 it was below 50 nM.
For `Cc1cnc(NC2CCOCC2)nc1-n1cnc(C(=O)NC(CO)c2ccsc2)c1` (stereo not shown) [Compound 234, N-(2-hydroxy-1-(thiophen-3-yl)ethyl)-1-(5-methyl-2-((tetrahydro-2H-pyran-4-yl)amino)-pyrimidin-4-yl)-1H-imidazole-4-carboxamide], in that order: at most 50 nM and below 50 nM.
For `CC[C@@H](CO)Nc1ncc(C)c(-n2ccc(C(=O)N[C@@H](CO)c3cccc(Cl)c3)c2)n1` [Compound 218, N-((R)-1-(3-chlorophenyl)-2-hydroxyethyl)-1-(2-(((S)-1-hydroxy-butan-2-yl)amino)-5-methylpyrimidin-4-yl)-1H-pyrrole-3-carboxamide] the same measures were 500 to 2500 nM and 100 to 500 nM.
For `Cc1cnc(Nc2ccc3c(c2)OCO3)cc1-n1cnc(C(=O)NC(CO)c2cccc(Cl)c2)c1` (stereo not shown) [Compound 88, 1-(2-(benzo[d][1,3]dioxol-5-ylamino)-5-methylpyridin-4-yl)-N-(1-(3-chloro-phenyl)-2-hydroxy-ethyl)-1H-imidazole-4-carboxamide] the same measures were at most 50 nM and below 50 nM.
Regarding `CC[C@@H](CO)Nc1ncc(C)c(-n2ccc(C(=O)N[C@H](CO)c3ccc(F)c(Cl)c3)c2)n1` [Compound 133, N-((S)-1-(3-chloro-4-fluorophenyl)-2-hydroxyethyl)-1-(2-(((S)-1-hydroxy-butan-2-yl)amino)-5-methylpyrimidin-4-yl)-1H-pyrrole-3-carboxamide], the IC50 is at most 50 nM against ERK2 and below 50 nM against ERK1.
For `Cc1cnc(Nc2ccc3c(c2)OCO3)nc1-n1cc(NC(=O)N[C@H](CO)c2cccc(Cl)c2)cn1` [Compound 44, (S)-1-(1-(2-(benzo[d][1,3]dioxol-5-ylamino)-5-methylpyrimidin-4-yl)-1H-pyrazol-4-yl)-3-(1-(3-chloro-phenyl)-2-hydroxy-ethyl)urea] the same measures were at most 50 nM and 50 to 100 nM.
For `Cc1cnc(Nc2ccc3c(c2)CCO3)nc1-n1ccc(C(=O)NC(CO)c2ccccc2)c1` (stereo not shown) [Compound 138, 1-(2-((2,3-dihydro-benzofuran-5-yl)amino)-5-methylpyrimidin-4-yl)-N-(2-hydroxy-1-phenylethyl)-1H-pyrrole-3-carboxamide], in that order: at most 50 nM and below 50 nM.
For `O=C(Nc1cnn(-c2ccnc(N[C@H]3CC[C@H](O)CC3)n2)c1)N[C@H](CO)c1cccc(Cl)c1` [Compound 14, 1-((S)-1-(3-chlorophenyl)-2-hydroxyethyl)-3-(1-(2-((trans-4-hydroxycyclohexyl)amino)pyrimidin-4-yl)-1H-pyrazol-4-yl)urea] the same measures were 100 to 500 nM and 100 to 500 nM.
`Cc1cnc(NC2CC(F)(F)C2)nc1-n1cnc(C(=O)N[C@H](CN)c2cc(F)cc(Cl)c2)c1` [Example 288, (S)-N-(2-amino-1-(3-chloro-5-fluoro-phenyl)ethyl)-1-(2-((3,3-difluoro-cyclobutyl)amino)-5-methylpyrimidin-4-yl)-1H-imidazole-4-carboxamide]: the results for the IC50 on ERK2 and against ERK1 were at most 50 nM and below 50 nM, respectively.
For `Cc1cnc(NC2CCNC2)nc1-n1ccc(C(=O)N[C@H](CO)c2cccc(Cl)c2)c1` (stereo partly drawn) [Compound 174, N-((S)-1-(3-chlorophenyl)-2-hydroxyethyl)-1-(5-methyl-2-(pyrrolidin-3-ylamino)pyrimidin-4-yl)-1H-pyrrole-3-carboxamide] the same measures were at most 50 nM and below 50 nM.
For `COc1ccc(Nc2ncc(C)c(-n3ccc(C(=O)NC(CO)c4cccc(Cl)c4)c3)n2)cc1OCCCN(C)C` (stereo not shown) [Compound 184, N-(1-(3-chloro-phenyl)-2-hydroxy-ethyl)-1-(2-((3-(3-(dimethylamino)propoxy)-4-methoxy-phenyl)amino)-5-methylpyrimidin-4-yl)-1H-pyrrole-3-carboxamide], in that order: at most 50 nM and below 50 nM.
For `Cc1cnc(Nc2ccc(F)cc2Cl)nc1-n1cc(NC(=O)NC(CO)c2cccc(Cl)c2)cn1` (stereo not shown) [Compound 36, 1-(1-(2-((2-chloro-4-fluorophenyl)-amino)-5-methyl-pyrimidin-4-yl)-1H-pyrazol-4-yl)-3-(1-(3-chlorophenyl)-2-hydroxyethyl)urea], in that order: at most 50 nM and 100 to 500 nM.
For `Cc1cnc(Nc2ccc(F)cc2)nc1-n1cnc(C(=O)N[C@H](CN)c2cccc(Cl)c2)c1` [Compound 248, (S)-N-(2-amino-1-(3-chlorophenyl)-ethyl)-1-(2-((4-fluorophenyl)amino)-5-methyl-pyrimidin-4-yl)-1H-imidazole-4-carboxamide], the IC50 against ERK2 was at most 50 nM; against ERK1, below 50 nM.
For `Cc1cnc(Nc2ccc(F)c(N3CCOCC3)c2)nc1-n1ccc(C(=O)NC(CO)c2cccc(Cl)c2)c1` (stereo not shown) [Compound 175, N-(1-(3-chloro-phenyl)-2-hydroxy-ethyl)-1-(2-((4-fluoro-3-morpholinophenyl)amino)-5-methyl-pyrimidin-4-yl)-1H-pyrrole-3-carboxamide], in that order: at most 50 nM and below 50 nM.
For `Cc1cnc(Nc2cccc3c2OC(F)(F)O3)nc1-n1ccc(C(=O)NC(CO)c2cccc(Cl)c2)c1` (stereo not shown) [Compound 160, N-(1-(3-chloro-phenyl)-2-hydroxy-ethyl)-1-(2-((2,2-difluoro-benzo[d][1,3]dioxol-4-yl)amino)-5-methylpyrimidin-4-yl)-1H-pyrrole-3-carboxamide] the same measures were at most 50 nM and below 50 nM.
For `O=C(NC(CO)c1cccc(Cl)c1)c1ccn(-c2ccnc(Nc3ccc4c(c3)OC(F)(F)O4)n2)c1` (stereo not shown) [Compound 176, N-(1-(3-chloro-phenyl)-2-hydroxyethyl)-1-(2-((2,2-difluoro-benzo[d][1,3]dioxol-5-yl)amino)-pyrimidin-4-yl)-1H-pyrrole-3-carboxamide] the same measures were at most 50 nM and below 50 nM.
Regarding `Cc1cnc(N[C@H]2CCOC2)nc1-n1ccc(C(=O)N(C)C(CO)c2cccc(Cl)c2)c1` (stereo partly drawn) [Compound 212, N-(1-(3-chlorophenyl)-2-hydroxyethyl)-N-methyl-1-(5-methyl-2-(((S)-tetrahydrofuran-3-yl)amino)-pyrimidin-4-yl)-1H-pyrrole-3-carboxamide], the half-inhibitory concentration (IC50) on ERK2 is at most 50 nM; on ERK1, below 50 nM.
For `Cc1cnc(Nc2ccc(F)cc2)nc1-n1cnc(C(=O)NC(CO)c2cccc(Cl)c2)c1` (stereo not shown) [Compound 155, N-(1-(3-chlorophenyl)-2-hydroxyethyl)-1-(2-((4-fluoro-phenyl)amino)-5-methylpyrimidin-4-yl)-1H-imidazole-4-carboxamide] the same measures were at most 50 nM and below 50 nM.
For `Cc1cnc(Nc2ccc(F)cc2)cc1-n1ccc(C(=O)NC(CN)c2ccc(F)c(Cl)c2)c1` (stereo not shown) [Compound 164, N-(2-amino-1-(3-chloro-4-fluoro-phenyl)ethyl)-1-(2-((4-fluorophenyl)-amino)-5-methyl-pyridin-4-yl)-1H-pyrrole-3-carboxamide] the same measures were at most 50 nM and below 50 nM.
As for `O=C(Nc1cnn(-c2ccnc(NC3CC3)n2)c1)NC(CO)c1cccc(Cl)c1` (stereo not shown) [Compound 16, 1-(1-(3-chlorophenyl)-2-hydroxyethyl)-3-(1-(2-(cyclopropyl-amino)pyrimidin-4-yl)-1H-pyrazol-4-yl)urea], the figures for the concentration for half-maximal inhibition (IC50) at ERK2 and at ERK1 were 50 to 100 nM and 100 to 500 nM, respectively.
For `Cc1cnc(Nc2ccc3c(c2)CCO3)nc1-n1ccc(C(=O)NC(CO)c2cccc(Cl)c2)c1` (stereo not shown) [Compound 137, N-(1-(3-chloro-phenyl)-2-hydroxyethyl)-1-(2-((2,3-dihydro-benzofuran-5-yl)-mino)-5-methyl-pyrimidin-4-yl)-1H-pyrrole-3-carboxamide] the same measures were at most 50 nM and below 50 nM.
For `Cc1cn(-c2nc(Nc3ccc(F)cc3)ncc2C)cc1C(=O)NC(CO)c1cccc(Cl)c1` (stereo not shown) [Compound 107, N-(1-(3-chlorophenyl)-2-hydroxyethyl)-1-(2-((4-fluoro-phenyl)amino)-5-methylpyrimidin-4-yl)-4-methyl-1H-pyrrole-3-carboxamide], in that order: at most 50 nM and below 50 nM.
With `Cc1cnc(Nc2ccc(F)c(N3CCNCC3)c2)nc1-n1ccc(C(=O)NC(CO)c2cccc(Cl)c2)c1` (stereo not shown) [Compound 213, N-(1-(3-chlorophenyl)-2-hydroxyethyl)-1-(2-((4-fluoro-3-(piperazin-1-yl)phenyl)amino)-5-methylpyrimidin-4-yl)-1H-pyrrole-3-carboxamide], the IC50 is at most 50 nM against ERK2 and below 50 nM against ERK1.
